The numbers were not newly measured in publication PMC3388044, “Probing of Exosites Leads to Novel Inhibitor Scaffolds of HCV NS3/4A Proteinase” (PLoS ONE, 2012), which cites them from elsewhere.

Structures are written as SMILES. Like-named read-outs stand apart in the source and are kept apart here.

The test system of one data set is HCV replicon (WT NS3/4A). The note with it: HCV replicon with luciferase readout; cited from earlier work.
The test system of data set [1] is HCV replicon (NS3/4A V36M). The note with it: cited from earlier work; for IC50: mutant HCV replicon with luciferase readout.
Data set [2] deals with HCV replicon (NS3/4A R155K). The note with it: cited from earlier work; for IC50: mutant HCV replicon with luciferase readout.
The subject of data set [3] is HCV replicon (NS3/4A A156T). The note with it: cited from earlier work; for IC50: mutant HCV replicon with luciferase readout.
Data set [4] concerns HCV replicon (NS3/4A D168A). Conditions: cited from earlier work; for D168A FC (replicon): fold change vs WT, mutant HCV replicon; for IC50: mutant HCV replicon with luciferase readout.
The subject of data set [5] is HCV replicon (NS3/4A V170A). Conditions: cited from earlier work.
In a further data set the test system is NS3/4A (WT). The note with it: purified recombinant WT NS3/4A in vitro; read-out: WT IC50 (purified enzyme); cited from earlier work.
The test system of the next data set is NS3/4A V36M. The note with it: cited from earlier work.
Another data set has as its system NS3/4A R155K. The note with it: cited from earlier work.
A further data set concerns NS3/4A D168A. The note with it: cited from earlier work.
The next data set deals with NS3/4A. The arrangement: method as in PMID 19505593. The note with it: cited from earlier work.
[6] abbreviates: fold change vs WT, mutant HCV replicon.
The mark [7] stands for this setting: fold change vs WT, purified recombinant enzyme.

On to `CC(C)(C)NC(=O)N[C@H](C(=O)N1C[C@H]2[C@@H]([C@H]1C(=O)NC(CC1CCC1)C(=O)C(N)=O)C2(C)C)C(C)(C)C` (some centres unmarked) [Boceprevir, boceprevir], for which the concentration for half-maximal inhibition (IC50) in the data set on HCV replicon (WT NS3/4A) was 148 nM; in data set [1], 217 nM; in data set [2], 743 nM; in [3] it was 7230 nM; in data set [4], 100 nM; in data set [5] (mutant HCV replicon with luciferase readout) it was 1550 nM. Further, in [1] (setting [6]), the “V36M FC (replicon)” value was 1.8. Moreover, the “R155K FC (replicon)” value in data set [2] (setting [6]) is on record as 4.7. In addition, the “D168A FC (replicon)” value in [4] is recorded as 0.7. In addition, the “V170A FC (replicon)” value in data set [5] (setting [6]) is 5.8.

As for `CCC[C@H](NC(=O)[C@@H]1[C@H]2CCC[C@H]2CN1C(=O)[C@@H](NC(=O)[C@@H](NC(=O)c1cnccn1)C1CCCCC1)C(C)(C)C)C(=O)C(=O)NC1CC1` [Telaprevir, telaprevir], the half-maximal inhibitory concentration (IC50) in the data set on HCV replicon (WT NS3/4A) was 150 nM; in [1] it was 886 nM; in data set [2] it was 1470 nM; in data set [3], 20300 nM; in [4] it was 46 nM; in the data set on NS3/4A (WT), 24 nM. For the same compound, the concentration for half-maximal inhibition (IC50) with NS3/4A V36M (purified recombinant mutant NS3/4A in vitro, read-out: V36M IC50 (purified enzyme)) is 270 nM; in the data set with NS3/4A R155K (purified recombinant mutant NS3/4A in vitro, read-out: R155K IC50 (purified enzyme)), 115 nM; with NS3/4A D168A (purified recombinant mutant NS3/4A in vitro, read-out: D168A IC50 (purified enzyme)) it was 9 nM. Besides, the “A156T FC (replicon)” value in data set [3] (setting [6]) is reported as 105. Also, the “D168A FC (replicon)” value in data set [4] is listed as 0.4. In the data set on NS3/4A V36M (setting [7]), the “V36M FC (purified enzyme)” value is 11.3. In addition, the “R155K FC (purified enzyme)” value in the data set with NS3/4A R155K (setting [7]) is listed as 4.8. The “D168A FC (purified enzyme)” value in the data set with NS3/4A D168A (setting [7]) is 0.4. The Ki at NS3/4A (improved KI after fast covalent bond formation, read-out: KI after covalent bond formation) is around 40 nM; at NS3/4A (initial non-covalent binding step, read-out: KI, non-covalent binding step), around 6000 nM.
